Several values for one entry are separate records, joined by “and”; a condition that tells them apart may be missing. Identical values can stand only once.
Test system: migraine attacks
Test: Naltrexone/acetaminophen open-label pilot study, acute treatment of migraine: headache pain (4-point scale; relief score ≤1, pain-free score = 0), associated symptoms, additional meds
Format: in vivo, human
Experimental: Sixteen unique patients were enrolled in an open phase pilot study for the acute treatment of migraine attacks, insomnia, and emotional pain. Of the sixteen patients, eleven were evaluated for one migraine attack, one for two attacks, two for four attacks, one for six attacks, and one for fourteen attacks. A total of forty-one […] treatments were evaluated. Patients received a single dose of one of the following treatment options:
The majority of the patients remained in the clinic for observation for 2 hours after dosing. They completed headache diary assessments immediately before and after dosing at time points: 7, 15, and 30 minutes; and 1, 1.5, 2, 3, 6, 12, 24, and 48 hours. Headache pain was assessed on a 4-point scale (0=none; 1=mild; 2=moderate; 3=severe). The assessment of photophobia, phonophobia, nausea, and neck/shoulder pain was assessed as present or absent. The assessment of emotional pain was recorded on a 4-point scale (0=none, 1=mild, 2=moderate, 3=severe). The assessment of difficulty sleeping or falling asleep (insomnia) was assessed on a 4-point scale (0=none, 1=mild, 2=moderate, 3=severe) at baseline, for the night before treatment and for the following nights at 24, and 48 hours. Patients recorded side effects severity at each time point. Patients recorded the time of the first rescue medication dose and all additional headache medications used within 48 hours. Patients were required to stay awake to record their assessments in the first 2 hours, sleeping was permitted thereafter. While asleep, assessments were completed according to patients' best estimation. For data analysis, it was assumed that a migraine attack is a unique patient. Patients were asked to specify (yes or no answer) to whether they experienced emotional pain symptoms such as: hurt feelings, sadness, fear, or anger. Patients who replied positively to having emotional pain were asked to specify the cause into one of the following options: relationship, work/school, money/debt, health, or loss/grief.

[1] = 1 h, NTX/APAP 3.25 mg/325 mg, NTX 3.25 mg
[2] = 1 h, NTX/APAP 5 mg/325 mg, NTX 5 mg
[3] = 1 h, NTX/APAP […]325 mg, NTX 1.5 mg
[4] = 1 h, naltrexone/acetaminophen 2.25 mg/325 mg (N=21), naltrexone 2.25 mg (N=9)
[5] = 90 min, NTX/APAP 2.25 mg/325 mg, NTX 2.25 mg
[6] = 90 min, NTX/APAP 3.25 mg/325 mg, NTX 3.25 mg
[7] = 90 min, NTX/APAP 5 mg/325 mg, NTX 5 mg
[8] = 90 min, NTX/APAP […]325 mg, NTX 1.5 mg
[9] = 90 min, naltrexone/acetaminophen 2.25 mg/325 mg (N=21), naltrexone 2.25 mg (N=9)
[10] = 2 h, NTX/APAP 2.25 mg/325 mg, NTX 2.25 mg
[11] = 2 h, NTX/APAP 3.25 mg/325 mg, NTX 3.25 mg
[12] = 2 h, NTX/APAP 5 mg/325 mg, NTX 5 mg
[13] = 2 h, NTX/APAP […]325 mg, NTX 1.5 mg
[14] = 2 h, naltrexone/acetaminophen 2.25 mg/325 mg (N=21), naltrexone 2.25 mg (N=9)
[15] = 3 h, NTX/APAP 2.25 mg/325 mg, NTX 2.25 mg

For O=C1CC[C@@]2(O)[C@H]3Cc4ccc(O)c5c4[C@@]2(CCN3CC2CC2)[C@H]1O5 [naltrexone], the Headache pain-relief [1] was 3 (100) n (%), the “Most bothersome symptom free” value [1] was 2 (66) n (%) and the Nausea-free [1] was 3 (100) n (%). The Neck/shoulder pain-free [1] was 3 (100) n (%), the Phonophobia-free [1] was 2 (66) n (%) and the Photophobia-free [1] was 1 (33) n (%). The Additional meds taken [2] was 0, the Headache pain-free [2] was 0 n (%) and the Headache pain-relief [2] was 1 n (%). For the same compound, the “Most bothersome symptom free” value [2] was 1 n (%), the Nausea-free [2] was 1 n (%) and the Neck/shoulder pain-free [2] was 1 n (%). For the same compound, the Phonophobia-free [2] was 1 n (%), the Photophobia-free [2] was 1 n (%) and the Additional meds taken [3] was 0. The Headache pain-free [3] was 1 (33) n (%), the Headache pain-relief [3] was 2 (66) n (%) and the “Most bothersome symptom free” value [3] was 1 (33) n (%). For the same compound, the Nausea-free [3] was 3 (100) n (%), the Neck/shoulder pain-free [3] was 2 (66) n (%) and the Phonophobia-free [3] was 1 (33) n (%). The Photophobia-free [3] was 2 (66) n (%), the Additional meds taken (1 h, all doses combined) was 0 and the Headache pain-free (1 h, all doses combined) was 8 (50) n (%). For the same compound, the Headache pain-relief (1 h, all doses combined) was 13 (81) n (%), the “Most bothersome symptom free” value (1 h, all doses combined) was 11 (69) n (%) and the Nausea-free (1 h, all doses combined) was 12 (75) n (%). The Neck/shoulder pain-free (1 h, all doses combined) was 12 (75) n (%), the Phonophobia-free (1 h, all doses combined) was 12 (75) n (%) and the Photophobia-free (1 h, all doses combined) was 10 (63) n (%). For the same compound, the Headache pain-free (1 h, naltrexone 1.5 mg (N=3)) was 33%, the Headache pain-free [4] was 44% and the Headache pain-relief [4] was 88%. For the same compound, the Most bothersome symptom-free [4] was 77%, the Headache pain-free (1 h, naltrexone/acetaminophen 3.25 mg/325 mg (N=3), naltrexone 3.25 mg (N=3)) was 100% and the Additional meds taken [5] was 0 (0). The Headache pain-free [5] was 7 (77) n (%), the Headache pain-relief [5] was 9 (100) n (%) and the “Most bothersome symptom free” value [5] was 9 (100) n (%). For the same compound, the Nausea-free [5] was 9 (100) n (%), the Neck/shoulder pain-free [5] was 9 (100) n (%) and the Phonophobia-free [5] was 9 (100) n (%). The Photophobia-free [5] was 8 (88) n (%), the Additional meds taken [6] was 0 (0) and the Headache pain-free [6] was 3 (100) n (%). The Headache pain-relief [6] was 3 (100) n (%), the “Most bothersome symptom free” value [6] was 2 (66) n (%) and the Nausea-free [6] was 2 (66) n (%). The Neck/shoulder pain-free [6] was 3 (100) n (%), the Phonophobia-free [6] was 2 (66) n (%) and the Photophobia-free [6] was 2 (66) n (%). For the same compound, the Additional meds taken [7] was 0 (0), the Headache pain-free [7] was 1 (100) n (%) and the Headache pain-relief [7] was 1 (100) n (%). The “Most bothersome symptom free” value [7] was 1 (100) n (%), the Nausea-free [7] was 1 (100) n (%) and the Neck/shoulder pain-free [7] was 1 (100) n (%). For the same compound, the Phonophobia-free [7] was 1 (100) n (%), the Photophobia-free [7] was 1 (100) n (%) and the Additional meds taken [8] was 0 (0). For the same compound, the Headache pain-free [8] was 1 (33) n (%), the Headache pain-relief [8] was 3 (100) n (%) and the “Most bothersome symptom free” value [8] was 2 (66) n (%). For the same compound, the Nausea-free [8] was 3 (100) n (%), the Neck/shoulder pain-free [8] was 1 (33) n (%) and the Phonophobia-free [8] was 1 (100) n (%). For the same compound, the Photophobia-free [8] was 1 (100) n (%), the Additional meds taken (90 min, all doses combined) was 0 and the Headache pain-free (90 min, all doses combined) was 13 (81) n (%). The Headache pain-relief (90 min, all doses combined) was 16 (100) n (%), the “Most bothersome symptom free” value (90 min, all doses combined) was 14 (88) n (%) and the Nausea-free (90 min, all doses combined) was 16 (100) n (%). For the same compound, the Neck/shoulder pain-free (90 min, all doses combined) was 14 (88) n (%), the Phonophobia-free (90 min, all doses combined) was 13 (81) n (%) and the Photophobia-free (90 min, all doses combined) was 12 (75) n (%). The Headache pain-free (90 min, naltrexone 1.5 mg (N=3)) was 100%, the Headache pain-free [9] was 77% and 100% and the Headache pain-relief [9] was 100%. For the same compound, the Most bothersome symptom-free [9] was 100%, the Headache pain-free (90 min, naltrexone/acetaminophen 3.25 mg/325 mg (N=3), naltrexone 3.25 mg (N=3)) was 100% and the Additional meds taken [10] was 0. The Headache pain-free [10] was 7 (77) n (%), the Headache pain-relief [10] was 9 (100) n (%) and the “Most bothersome symptom free” value [10] was 9 (100) n (%). The Nausea-free [10] was 9 (100) n (%), the Neck/shoulder pain-free [10] was 9 (100) n (%) and the Phonophobia-free [10] was 9 (100) n (%). For the same compound, the Photophobia-free [10] was 8 (88) n (%), the Additional meds taken [11] was 0 and the Headache pain-free [11] was 3 (100) n (%). The Headache pain-relief [11] was 3 (100) n (%), the “Most bothersome symptom free” value [11] was 3 (100) n (%) and the Nausea-free [11] was 3 (100) n (%). For the same compound, the Neck/shoulder pain-free [11] was 3 (100) n (%), the Phonophobia-free [11] was 3 (100) n (%) and the Photophobia-free [11] was 3 (100) n (%). For the same compound, the Additional meds taken [12] was 0, the Headache pain-free [12] was 1 n (%) and the Headache pain-relief [12] was 1 n (%). For the same compound, the “Most bothersome symptom free” value [12] was 1 n (%), the Nausea-free [12] was 1 n (%) and the Neck/shoulder pain-free [12] was 1 n (%). The Phonophobia-free [12] was 1 n (%), the Photophobia-free [12] was 1 n (%) and the Additional meds taken [13] was 0. For the same compound, the Headache pain-free [13] was 3 (100) n (%), the Headache pain-relief [13] was 3 (100) n (%) and the “Most bothersome symptom free” value [13] was 3 (100) n (%). For the same compound, the Nausea-free [13] was 3 (100) n (%), the Neck/shoulder pain-free [13] was 3 (100) n (%) and the Phonophobia-free [13] was 3 (100) n (%). For the same compound, the Photophobia-free [13] was 3 (100) n (%), the Additional meds taken (2 h, combined doses) was 0 and the Headache pain-free (2 h, combined doses) was 14 (88) n (%). For the same compound, the Headache pain-relief (2 h, combined doses) was 16 (100) n (%), the “Most bothersome symptom free” value (2 h, combined doses) was 16 (100) n (%) and the Nausea-free (2 h, combined doses) was 16 (100) n (%). For the same compound, the Neck/shoulder pain-free (2 h, combined doses) was 16 (100) n (%), the Phonophobia-free (2 h, combined doses) was 16 (100) n (%) and the Photophobia-free (2 h, combined doses) was 16 (100) n (%). The Headache pain-free (2 h, naltrexone 1.5 mg (N=3)) was 100%, the Headache pain-free [14] was 77% and 100% and the Headache pain-relief [14] was 100%. For the same compound, the Most bothersome symptom-free [14] was 100%, the Headache pain-free (2 h, naltrexone/acetaminophen 3.25 mg/325 mg (N=3), naltrexone 3.25 mg (N=3)) was 100% and the Additional meds taken [15] was 0 (0). For the same compound, the Headache pain-free [15] was 7 (77) n (%), the Headache pain-relief [15] was 9 (100) n (%) and the “Most bothersome symptom free” value [15] was 9 (100) n (%). For the same compound, the Nausea-free [15] was 9 (100) n (%), the Neck/shoulder pain-free [15] was 9 (100) n (%) and the Phonophobia-free [15] was 9 (100) n (%).

Reference: patent publication US11058680B2, “Combinations of opioid/TLR4 antagonists and acetaminophen for use in the treatment of emotional pain and insomnia” (Allodynic Threapeutics, LLC, priority 2016, dated 2021)
